Test results as given in patent US11498909B2, “Compound acting as antibiotics” (KBP BIOSCIENCES CO., LTD., priority 2018, dated 2022).
In brackets after ≈: the same amount, converted by molar mass. Like-named read-outs stand apart in the source and are kept apart here.

Assays:
[1] = tested on: polymyxin-resistant mcr-1 positive Enterobacteriaceae; experiment: In vitro antibacterial effect on polymyxin-resistant mcr-1 positive Enterobacteriaceae, agar dilution MIC (Experiment 2); assay type: cell-based, Escherichia coli; settings: for MIC50 / MIC90: Escherichia coli; for MIC50: read-out: MIC50 Value, polymyxin-resistant mcr-1 positive Escherichia coli, agar dilution; for MIC90: read-out: MIC90 Value, polymyxin-resistant mcr-1 positive Escherichia coli, agar dilution
Protocol: Tested samples: the compounds of the present invention, prepared according to the methods of the preparation examples;
Polymyxin E sulphate, Ampicillin, Cefotaxime, Gentamicin, Ciprofloxacin, Tetracycline, and Bactrim were all commercial products, the following experiments were carried out according to the content of an effective ingredient in each commercial product.
Tested strains: Escherichia coli carrying mcr-1 gene isolated from animals and Escherichia coli ATCC25922, a quality control strain, were provided by South China Agricultural University.
With reference to the agar dilution method in CLSI, the MIC value of the tested drugs to the polymyxin resistant mcr-1 positive Escherichia coli were determined.
Preparation of drug-containing agar plates: a drug solution with the highest concentration was prepared for each compound; the drug solution with the highest concentration was subjected to the double dilution; for each of dilution gradient, 1 mL (20×drug working solution) of the drug solution was added to 19 mL MH agar at 45-50° C.; immediately after addition, the agar and the drug solution were uniformly mixed to give a drug-containing agar plate with final concentrations of […], and the plate was solidified for later use; and in the meanwhile, a growth control group was arranged.
Inoculum preparation and culture: the strains stored at −80° C. were rejuvenated and formulated with broth so that the turbidity reached or exceeded 0.5 #McFarland unit; a 96-well plate was used as the inoculation tank, and the bacterial solution was diluted with sodium chloride injection so that the content of bacteria inoculated on the agar was 10^4 CFU/point. A multi-point inoculation instrument was used to inoculate the bacterial solution to the surface of the labeled drug-containing agar. After the water in the inoculation point was completely absorbed by the agar, the plate was placed upside down in a 37° C. constant-temperature incubator and incubated for 16-20 hours.

[2] = Pharmacokinetics (PK) determination in SD rats (Experiment 4); assay type: in vivo; settings: plasma; for AUC(0-t) / AUC(0-inf): Sprague-Dawley (SD), rat, iv, 2 mg/kg; for AUC(0-inf): read-out: AUCINF_obs
Protocol: The compound of the present invention, self-prepared and dissolved in a suitable solvent.
Instrument and equipment: API4000 LC-MS/MS
Chromatographic column: Waters XBridge C18(2.1×50 mm, […])
Rat blood collection: Animals were fixed. The animal's tail was heated with a water bathtub 10 minutes before each time point. About 200 μL of the blood was collected through the caudal vein. After the blood collection, the blood was placed in an anticoagulation tube containing heparin sodium. The blood samples were centrifuged at 8000 rpm for 6 minutes at 4° C. to obtain plasma samples. The plasma must be prepared within 30 minutes after the blood collection. The plasma was stored in a refrigerator at −80° C. before the test.
(1) Test samples were removed from the refrigerator (−80° C.), naturally thawed at room temperature, and then vortexed for 5 minutes;
(2) 20 μL sample was precisely pipetted to a 1.5 mL centrifuge tube;
(3) 200 μL of the internal standard solution was added;
(4) The mixture was vortexed for 5 minutes and centrifuged for 5 minutes (12000 revolutions per minute);
(5) 100 μL of the supernate was precisely pipetted, 100 μL of water was added, the mixture was vortexed for 5 minutes, and the sample was sent to LC-MS/MS for analysis.
The results of the concentrations of the test samples (plasma samples) were output with Analyst 1.6.1 of AB Corporation. The meaning value, the standard deviation, the coefficient of variation, and other parameters (not necessary to calculate the parameter that can be directly output from Analyst 1.6.1) were calculated with Microsoft Excel, and the PK parameter is calculated with Pharsight Phoenix 6.1 software.

Klebsiella pneumoniae = experiment: In vitro antibacterial activity, agar dilution MIC (Experiment 1); assay type: cell-based
Protocol: (§1) Tested strains: all the clinically separated strains below were purchased from public facilities.
(§2) Escherichia coli ATCC25922, Pseudomonas aeruginosa ATCC27853, Klebsiella pneumoniae ATCC700603, and the like.
(§3) Tested Samples: Imipenem, Ceftazidime: Commercial Products, the Following Experiments were Carried Out According to the Content of an Effective Ingredient in Each Commercial Product;
(§4) The compounds of the present invention, their chemical names, and preparation methods are shown in the preparation example of each compound.
(§5) Experiment method: Agar dilution method, refer to National Committee for Clinical Laboratory Standards. 2006. Methods for Dilution Antimicrobial Susceptibility Tests for Bacteria That Grow Aerobically; Approved Standard—Seventh Edition M7-A7, Vol 26, No. 2, 2006, to determine the MIC of the compound. MIC represents the minimum inhibitory concentration.

Escherichia coli = experiment: as above; assay type: cell-based
Protocol: as §1, §2, §3, §4, §5

Pseudomonas aeruginosa = experiment: as above; assay type: cell-based
Protocol: as §1, §2, §3, §4, §5

[3] = agar dilution (Table 3), read-out: MIC90
[4] = agar dilution (Table 3), read-out: MIC50

| Structure (SMILES) | MIC50 [1] | MIC90 [1] | Cl_obs ([2]; IV 2 mg/kg) | Vz_obs ([2]; IV 2 mg/kg) | t1/2z ([2]; IV 2 mg/kg) | λ_z ([2]; IV 2 mg/kg) | AUC(0-t) [2] | AUC(0-inf) [2] | MIC90 (Pseudomonas aeruginosa; [3]) | MIC50 (Pseudomonas aeruginosa; [4]) | further results |
| --- | --- | --- | --- | --- | --- | --- | --- | --- | --- | --- | --- |
| CC1(C)S[C@@H]2[C@H](NC(=O)[C@H](N)c3ccccc3)C(=O)N2[C@H]1C(=O)O [Ampicillin] | > 128 µg/mL | > 128 µg/mL |  |  |  |  |  |  |  |  |  |
| CO/N=C(\C(=O)N[C@@H]1C(=O)N2C(C(=O)O)=C(COC(C)=O)CS[C@H]12)c1csc(N)n1 [Cefotaxime] | 2 µg/mL (≈ 4.39 µM) | 128 µg/mL (≈ 281 µM) |  |  |  |  |  |  |  |  |  |
| O=C(O)c1cn(C2CC2)c2cc(N3CCNCC3)c(F)cc2c1=O [Ciprofloxacin] | 4 µg/mL (≈ 12.1 µM) | 32 µg/mL (≈ 96.6 µM) |  |  |  |  |  |  |  |  |  |
| C[C@@H](O)[C@H](NC(=O)c1ccc(C#CC#Cc2ccc(CN(C)C)o2)cc1)C(=O)NO [Compound 4, 4-((5-((dimethylamino)methyl)furan-2-yl)buta-1,3-diynyl)-N-((2S,3R)-3-hydroxy-1-(hydroxyamino)-1-oxobutan-2-yl)benzamide] |  |  | 80 ± 1.83 mL/min/kg | 1.74 ± 0.81 L/kg | 15 ± 7.2 min | 3.16 ± 1.28 h⁻¹ | 414 ± 10.3 ng·h/mL | 417 ± 9.68 ng·h/mL |  |  | MIC50 (Klebsiella pneumoniae): 1 µg/mL (≈ 2.44 µM); MIC90 (Klebsiella pneumoniae): 2 µg/mL (≈ 4.88 µM); MIC50 (Escherichia coli): 0.25 µg/mL (≈ 0.611 µM); MIC90 (Escherichia coli): 0.25 µg/mL (≈ 0.611 µM); MIC50 (Pseudomonas aeruginosa): 1 µg/mL (≈ 2.44 µM); MIC90 (Pseudomonas aeruginosa): 4 µg/mL (≈ 9.77 µM) |
| CNC(=O)C(C(=O)NO)N(C)C(=O)c1ccc(C#CC#Cc2ccc(CO)o2)cc1 (centres unmarked) [Compound 5, N-methyl-N-(3-methylamino-1-(hydroxyamino)-1,3-dioxopropan-2-yl)-4-((5-(hydroxymethyl)furan-2-yl)buta-1,3-diynyl)benzamide] |  | 0.5 µg/mL (≈ 1.22 µM) | 10.3 ± 1.3 mL/min/kg | 0.63 ± 0.02 L/kg | 42.6 ± 6.6 min | 0.99 ± 0.15 h⁻¹ | 8110 ± 1050 ng·h/mL | 8150 ± 1040 ng·h/mL | 1 µg/mL (≈ 2.44 µM) |  | MIC90 Value ([1]; polymyxin-resistant mcr-1 positive Escherichia coli, agar dilution): 1 µg/mL (≈ 2.44 µM); MIC50 (Escherichia coli; agar dilution, read-out: MIC50): 2 µg/mL (≈ 4.89 µM); MIC90 (Escherichia coli; agar dilution, read-out: MIC90): 4 µg/mL (≈ 9.77 µM); MIC50 (Pseudomonas aeruginosa): 0.125 µg/mL (≈ 0.305 µM) |
| C[C@@H](O)[C@H](NC(=O)c1ccc(C#CC#Cc2ccc(CNC3CC3)o2)cc1)C(=O)NO [Compound 11, 4-((5-((cyclopropylamino)methyl)furan-2-yl)buta-1,3-diynyl)-N-((2S,3R)-3-hydroxy-1-(hydroxamino)-1-oxobutan-2-yl)benzamide] |  |  |  |  |  |  |  |  | 8 µg/mL (≈ 19 µM) | 1 µg/mL (≈ 2.37 µM) | MIC50 (Klebsiella pneumoniae; agar dilution, read-out: MIC50): 0.5 µg/mL (≈ 1.19 µM); MIC90 (Klebsiella pneumoniae; agar dilution, read-out: MIC90): 2 µg/mL (≈ 4.75 µM); MIC50 (Escherichia coli; agar dilution, read-out: MIC50): 0.125 µg/mL (≈ 0.297 µM); MIC90 (Escherichia coli; agar dilution, read-out: MIC90): 0.25 µg/mL (≈ 0.593 µM) |
| C[C@@H](O)[C@H](NC(=O)c1ccc(C#CC#Cc2ccc(CNCCOCCO)o2)cc1)C(=O)NO [Compound 18, N-((2S,3R)-3-hydroxy-1-(hydroxyamino)-1-oxobutan-2-yl)-4-((5-((2-(2-hydroxyethoxy)ethylamino)methyl)furan-2-yl)buta-1,3-diynyl)benzamide] |  |  |  |  |  |  |  |  | 4 µg/mL (≈ 8.52 µM) | 1 µg/mL (≈ 2.13 µM) | MIC50 (Klebsiella pneumoniae; agar dilution, read-out: MIC50): 2 µg/mL (≈ 4.26 µM); MIC90 (Klebsiella pneumoniae; agar dilution, read-out: MIC90): 2 µg/mL (≈ 4.26 µM) |
| C[C@@H](O)[C@H](NC(=O)c1ccc(C#CC#Cc2ccco2)cc1)C(=O)NO [Compound 20] |  |  | 107 ± 16 mL/min/kg | 3.77 ± 0.53 L/kg | 24.6 ± 0.6 min | 1.70 ± 0.03 h⁻¹ |  |  |  |  | AUCINF_obs ([2]; IV 2 mg/kg): 791 ± 117 ng·h/mL; AUClast ([2]; IV 2 mg/kg): 778 ± 116 ng·h/mL; MIC50 (Pseudomonas aeruginosa; agar dilution (Table 3)): 0.25 µg/mL (≈ 0.71 µM); MIC90 (Pseudomonas aeruginosa; agar dilution (Table 3)): 1 µg/mL (≈ 2.84 µM) |
| C[C@@H](O)[C@H](NC(=O)c1ccc(C#CC#Cc2ccc(COCCOCCO)o2)cc1)C(=O)NO [Compound 21, N-((2S,3R)-3-hydroxy-1-(hydroxyamino)-1-oxobutan-2-yl)-4-((5-((2-(2-hydroxyethoxy)ethoxy)methyl)furan-2-yl)buta-1,3-diynyl)benzamide] |  |  | 24.2 ± 4.83 mL/min/kg | 0.33 ± 0.07 L/kg | 9.6 ± 0.6 min | 4.38 ± 0.25 h⁻¹ | 1400 ± 256 ng·h/mL | 1420 ± 255 ng·h/mL | 4 µg/mL (≈ 8.5 µM) | 1 µg/mL (≈ 2.13 µM) |  |
